{"source": "ChEMBL document CHEMBL1153220", "about": "“Chemical lead optimization of a pan G(q) mAChR M(1), M(3), M(5) positive allosteric modulator (PAM) lead. Part I: Development of the first highly selective M(5) PAM” (Bioorg Med Chem Lett, 2010)", "key": {"[1]": {"biological_target": "T1, Muscarinic acetylcholine receptor M5 (Homo sapiens, UniProt P08912)", "T1 sequence (P08912 whole entry)": "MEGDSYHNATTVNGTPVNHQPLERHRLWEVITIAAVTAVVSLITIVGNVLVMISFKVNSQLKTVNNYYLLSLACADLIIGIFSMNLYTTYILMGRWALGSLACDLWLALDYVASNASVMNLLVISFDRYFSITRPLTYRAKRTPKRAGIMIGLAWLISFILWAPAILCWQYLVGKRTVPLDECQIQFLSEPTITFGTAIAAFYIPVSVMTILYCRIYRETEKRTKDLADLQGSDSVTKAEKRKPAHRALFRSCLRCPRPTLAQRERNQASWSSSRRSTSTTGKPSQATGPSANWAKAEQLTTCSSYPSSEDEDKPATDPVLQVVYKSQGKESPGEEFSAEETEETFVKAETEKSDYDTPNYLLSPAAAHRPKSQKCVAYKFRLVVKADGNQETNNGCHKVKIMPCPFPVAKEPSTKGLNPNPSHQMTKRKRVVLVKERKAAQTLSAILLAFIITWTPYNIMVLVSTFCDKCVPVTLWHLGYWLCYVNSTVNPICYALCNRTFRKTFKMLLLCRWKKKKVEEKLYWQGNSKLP", "experiment": "Agonist activity at human muscarinic M5 expressed in CHO cells assessed as stimulation of calcium mobilization", "assay_type": "functional, cell-based"}, "[2]": {"biological_target": "T2, Muscarinic acetylcholine receptor M5 (Homo sapiens) (UniProt P08912)", "T2 sequence (whole entry)": "T1 sequence (P08912 whole entry)", "experiment": "Agonist activity at human muscarinic M5 expressed in CHO cells assessed as stimulation of calcium mobilization relative to acetyle choline", "assay_type": "functional, cell-based", "design": "concentration or dose not given beside the values"}, "[3]": {"biological_target": "T3, Muscarinic acetylcholine receptor M4 (Rattus norvegicus, UniProt P08485)", "T3 sequence (P08485 whole entry)": "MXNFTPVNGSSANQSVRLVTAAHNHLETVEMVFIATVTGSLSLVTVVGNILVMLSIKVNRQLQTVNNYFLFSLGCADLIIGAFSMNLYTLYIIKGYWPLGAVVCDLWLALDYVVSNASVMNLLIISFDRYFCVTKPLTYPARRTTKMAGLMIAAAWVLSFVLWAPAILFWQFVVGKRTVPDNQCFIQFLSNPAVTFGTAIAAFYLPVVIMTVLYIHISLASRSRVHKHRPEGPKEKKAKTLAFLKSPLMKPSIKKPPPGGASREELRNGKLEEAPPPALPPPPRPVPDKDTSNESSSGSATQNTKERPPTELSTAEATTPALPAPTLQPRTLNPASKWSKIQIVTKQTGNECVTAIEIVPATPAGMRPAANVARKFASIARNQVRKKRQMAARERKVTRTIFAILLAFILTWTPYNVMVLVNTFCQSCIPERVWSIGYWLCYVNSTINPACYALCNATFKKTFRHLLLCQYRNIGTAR", "experiment": "Agonist activity at rat muscarinic M4 expressed in CHO cells assessed as stimulation of calcium mobilization", "assay_type": "functional, cell-based"}, "[4]": {"experiment": "Ratio of AUC in rat brain to AUC in rat plasma", "assay_type": "ADME, tissue-based", "details": "read-out: Ratio AUC"}, "[5]": {"biological_target": "T4, Muscarinic acetylcholine receptor M1 (Rattus norvegicus, UniProt P08482)", "T4 sequence (P08482 whole entry)": "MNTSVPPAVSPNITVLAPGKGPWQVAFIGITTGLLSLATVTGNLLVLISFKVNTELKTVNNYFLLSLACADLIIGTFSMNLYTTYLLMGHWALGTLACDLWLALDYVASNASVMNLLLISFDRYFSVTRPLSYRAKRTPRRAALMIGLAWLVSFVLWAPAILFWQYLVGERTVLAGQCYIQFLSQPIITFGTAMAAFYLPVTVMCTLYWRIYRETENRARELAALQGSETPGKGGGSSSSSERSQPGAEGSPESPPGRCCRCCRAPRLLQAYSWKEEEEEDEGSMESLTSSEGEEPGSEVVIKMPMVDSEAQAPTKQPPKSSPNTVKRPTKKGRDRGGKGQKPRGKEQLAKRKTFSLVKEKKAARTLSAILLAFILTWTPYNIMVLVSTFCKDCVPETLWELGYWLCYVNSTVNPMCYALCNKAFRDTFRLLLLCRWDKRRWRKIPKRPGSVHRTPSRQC", "experiment": "Agonist activity at rat muscarinic M1 expressed in CHO cells assessed as stimulation of calcium mobilization", "assay_type": "functional, cell-based"}, "[6]": {"biological_target": "T5, Muscarinic acetylcholine receptor M2 (Rattus norvegicus, UniProt P10980)", "T5 sequence (P10980 whole entry)": "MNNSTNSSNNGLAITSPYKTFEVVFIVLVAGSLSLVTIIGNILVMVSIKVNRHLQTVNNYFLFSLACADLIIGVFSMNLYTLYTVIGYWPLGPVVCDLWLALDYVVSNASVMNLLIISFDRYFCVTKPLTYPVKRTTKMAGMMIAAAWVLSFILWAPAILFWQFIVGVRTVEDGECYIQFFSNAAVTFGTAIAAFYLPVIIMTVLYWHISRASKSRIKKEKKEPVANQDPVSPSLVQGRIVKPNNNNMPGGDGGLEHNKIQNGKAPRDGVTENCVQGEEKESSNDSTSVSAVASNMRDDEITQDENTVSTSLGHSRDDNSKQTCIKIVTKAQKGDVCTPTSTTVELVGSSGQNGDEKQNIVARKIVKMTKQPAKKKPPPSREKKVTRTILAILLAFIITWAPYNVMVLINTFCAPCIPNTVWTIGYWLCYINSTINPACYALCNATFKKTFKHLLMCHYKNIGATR", "experiment": "Agonist activity at rat muscarinic M2 expressed in CHO cells assessed as stimulation of calcium mobilization", "assay_type": "functional, cell-based"}, "[7]": {"biological_target": "T6, Muscarinic acetylcholine receptor M1 (Rattus norvegicus) (UniProt P08482)", "T6 sequence (whole entry)": "T4 sequence (P08482 whole entry)", "experiment": "Agonist activity at rat muscarinic M1 expressed in CHO cells assessed as stimulation of calcium mobilization at 30 uM", "assay_type": "functional, cell-based"}, "[8]": {"biological_target": "Muscarinic acetylcholine receptor M3 (Homo sapiens) (UniProt P20309)", "sequence (P20309 whole entry, looked up)": "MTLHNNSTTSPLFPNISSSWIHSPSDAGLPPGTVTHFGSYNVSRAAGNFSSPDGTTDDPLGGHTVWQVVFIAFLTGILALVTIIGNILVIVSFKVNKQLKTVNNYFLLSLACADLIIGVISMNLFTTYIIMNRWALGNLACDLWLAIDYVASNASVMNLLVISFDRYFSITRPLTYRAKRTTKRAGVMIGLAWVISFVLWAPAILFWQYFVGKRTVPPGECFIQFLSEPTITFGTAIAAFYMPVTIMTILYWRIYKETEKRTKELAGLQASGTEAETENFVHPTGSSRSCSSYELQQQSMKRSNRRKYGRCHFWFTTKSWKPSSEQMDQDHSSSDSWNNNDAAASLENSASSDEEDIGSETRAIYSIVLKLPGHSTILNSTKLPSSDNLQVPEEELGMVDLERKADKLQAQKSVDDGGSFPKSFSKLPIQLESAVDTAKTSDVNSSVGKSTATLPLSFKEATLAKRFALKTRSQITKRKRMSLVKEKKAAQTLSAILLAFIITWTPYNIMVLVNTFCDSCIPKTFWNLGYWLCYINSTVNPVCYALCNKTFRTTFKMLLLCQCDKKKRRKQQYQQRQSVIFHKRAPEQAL", "experiment": "Agonist activity at human muscarinic M3 expressed in CHO cells assessed as stimulation of calcium mobilization at 30 uM", "assay_type": "functional, cell-based"}}}
{"smiles": "O=C1C(=O)N(Cc2ccc(Oc3ccccc3)cc2)c2ccc(OC(F)(F)F)cc21", "values": [{"measurement": "EC50", "setting": "[1]", "result": 1.9, "unit": "µM"}, {"measurement": "Activity", "setting": "[2]", "result": 75, "unit": "%"}]}
{"smiles": "O=C1C(=O)N(Cc2ccc(C(F)(F)F)cc2)c2c(Cl)cccc21", "values": [{"measurement": "EC50", "setting": "[3]", "result": "> 10", "unit": "µM"}, {"measurement": "Kp", "setting": "[4]", "result": 0.25}]}
{"smiles": "O=C1C(=O)N(Cc2ccc(-c3ccsc3)cc2)c2ccc(OC(F)(F)F)cc21", "values": [{"measurement": "EC50", "setting": "[5]", "result": "> 30", "unit": "µM"}, {"measurement": "EC50", "setting": "[1]", "result": 2.8, "unit": "µM"}, {"measurement": "Activity", "setting": "[2]", "result": 85, "unit": "%"}, {"measurement": "Kp", "setting": "[4]", "result": 0.25}]}
{"smiles": "O=C1C(=O)N(Cc2ccc(Br)cc2)c2ccccc21", "values": [{"measurement": "EC50", "setting": "[6]", "result": "> 30", "unit": "µM"}, {"measurement": "EC50", "setting": "[3]", "result": "> 30", "unit": "µM"}, {"measurement": "Kp", "setting": "[4]", "result": 0.25}]}
{"smiles": "COc1ccccc1-c1ccc(CN2C(=O)C(=O)c3cc(OC(F)(F)F)ccc32)cc1", "values": [{"measurement": "EC50", "setting": "[5]", "result": "> 30", "unit": "µM"}, {"measurement": "EC50", "setting": "[1]", "result": 3.9, "unit": "µM"}, {"measurement": "Activity", "setting": "[2]", "result": 70, "unit": "%"}, {"measurement": "Kp", "setting": "[4]", "result": 0.25}]}
{"smiles": "O=C1C(=O)N(Cc2ccc(-c3ccc(Cl)nc3)cc2)c2ccc(OC(F)(F)F)cc21", "values": [{"measurement": "EC50", "setting": "[5]", "result": "> 30", "unit": "µM"}, {"measurement": "EC50", "setting": "[1]", "result": 4.8, "unit": "µM"}, {"measurement": "Activity", "setting": "[2]", "result": 85, "unit": "%"}, {"measurement": "Kp", "setting": "[4]", "result": 0.25}]}
{"smiles": "O=C1C(=O)N(Cc2ccc(-c3ccccc3)cc2)c2cc(OC(F)(F)F)ccc21", "values": [{"measurement": "EC50", "setting": "[1]", "result": 2.7, "unit": "µM"}]}
{"smiles": "O=C1C(=O)N(Cc2ccc(-c3ccccc3)cc2)c2ccc(OC(F)(F)F)cc21", "values": [{"measurement": "EC50", "setting": "[5]", "result": "> 30", "unit": "µM"}, {"measurement": "EC50", "setting": "[1]", "result": 2.7, "unit": "µM"}, {"measurement": "Activity", "setting": "[2]", "result": 85, "unit": "%"}, {"measurement": "Kp", "setting": "[4]", "result": 0.25}]}
{"smiles": "COc1ccc(CN2C(=O)C(=O)c3cc(OC(F)(F)F)ccc32)cc1", "values": [{"measurement": "EC50", "setting": "[6]", "result": "> 30", "unit": "µM"}, {"measurement": "EC50", "setting": "[3]", "result": "> 30", "unit": "µM"}, {"measurement": "EC50", "setting": "[1]", "result": 1.1, "unit": "µM"}, {"measurement": "Activity", "setting": "[7]", "result": 30, "unit": "%"}, {"measurement": "Activity", "setting": "[8]", "result": 30, "unit": "%"}, {"measurement": "Kp", "setting": "[4]", "result": 0.25}]}
{"smiles": "Cn1cc(-c2ccc(CN3C(=O)C(=O)c4cc(OC(F)(F)F)ccc43)cc2)cn1", "values": [{"measurement": "EC50", "setting": "[5]", "result": "> 30", "unit": "µM"}, {"measurement": "EC50", "setting": "[1]", "result": 3.3, "unit": "µM"}, {"measurement": "Activity", "setting": "[2]", "result": 85, "unit": "%"}, {"measurement": "Kp", "setting": "[4]", "result": 0.25}]}
{"smiles": "COc1ccc(CN2C(=O)C(=O)c3ccc(OC(F)(F)F)cc32)cc1", "values": [{"measurement": "EC50", "setting": "[1]", "result": 5.7, "unit": "µM"}]}
{"smiles": "O=C1C(=O)N(Cc2ccc(-c3ccc(F)nc3)cc2)c2ccc(OC(F)(F)F)cc21", "values": [{"measurement": "EC50", "setting": "[5]", "result": "> 30", "unit": "µM"}, {"measurement": "EC50", "setting": "[1]", "result": 3.6, "unit": "µM"}, {"measurement": "Activity", "setting": "[2]", "result": 80, "unit": "%"}, {"measurement": "Kp", "setting": "[4]", "result": 0.25}]}
